Assay results as given in US20250208149A1, “WEE1 COMPOUND FOR TREATING UTERINE SEROUS CARCINOMA” (Recurium IP Holdings, LLC, priority 2022, published 2025).

How the values were obtained:
Type in all cases: cell-based
[1] = system: OV17R ovarian cancer cells; assay: Percent inhibition of cell growth, ZN-c3, LB-100 or ZN-c3+LB-100 (cell titer glow); conditions: 72 h, read-out: percent inhibition of cell growth
Description: (§1) FIG. 19 depicts the percent inhibition of cell growth in OV17R ovarian cancer cells after treatment with ZN-c3 alone, the PP2A catalytic inhibitor LB-100 alone, or the combination of ZN-c3+LB-100. OV17R has the PPP2R1A missense mutation S256F. Percent inhibition is calculated using cell titer glow analysis.
(§2) Following observations that both knockdown and knockout of PPP2R1A could sensitize cancer cells to Zn-C3, the effects of pharmacological inhibition of PPP2R1A with the catalytic inhibitor LB-100 were evaluated. Various cancer cell lines were treated with ZN-c3 alone, the PP2A catalytic inhibitor LB-100 alone, or the combination of ZN-c3+LB-100. As in Example 1 and Example 2, the treatment period was 72 hours and percent inhibition was calculated using cell titer glow analysis.
The ovarian cancer cell line OV17R was assessed for sensitivity to ZN-c3 alone, LB-100 alone, or the combination of ZN-c3+LB-100 (FIG. 19).

[2] = system: HEC-59 endometrial cancer cells; assay: as above; conditions: HEC-59 (PPP2R1A wild-type), 72 hours; ZN-c3 400 nM, LB-100 1 μM
Description: as §1, with “18” for “19”, “HEC-59 endometrial” for “OV17R ovarian”, “HEC-59 cell line is” for “OV17R has the”, “wild-type. […]” for “missense mutation S256F.”
(§3) Various cancer cell lines were treated with ZN-c3 alone, the PP2A catalytic inhibitor LB-100 alone, or the combination of ZN-c3+LB-100. As in Example 1 and Example 2, the treatment period was 72 hours and percent inhibition was calculated using cell titer glow analysis.
The endometrial cancer cell line HEC-59 was assessed for sensitivity to ZN-c3 alone, LB-100 alone, or the combination of ZN-c3+LB-100 (FIG. 18).

[3] = system: HEC1B endometrial cancer cells; assay: Percent inhibition of cell growth, ZN-c3, LB-100 or ZN-c3+LB-100 after siCTRL or siPPP2R1A (cell titer glow); conditions: Homo sapiens, HEC-1B, 72 h, read-out: percent inhibition of cell growth
Description: (§4) FIG. 21 depicts the percent inhibition of cell growth in HEC1B endometrial cancer cells after treatment with ZN-c3 alone, the PP2A catalytic inhibitor LB-100 alone, or the combination of ZN-c3+LB-100 after siRNA mediated knockdown of PPP2R1A. […] Percent inhibition is calculated using cell titer glow analysis.
as §2
The endometrial cancer cell line HEC1B was also assessed for sensitivity to ZN-c3 alone, LB-100 alone, or the combination of ZN-c3+LB-100 following treatment with siCTRL or siPPP2R1A (FIG. 21).

[4] = system: HEC-59 endometrial cancer cells; assay: as above; conditions: 72 hours, ZN-c3 300 nM, LB-100 1 μM
Description: as §4, with “20” for “21”, “HEC-59” for “HEC1B”
as §3
The endometrial cancer cell line HEC-59 was assessed for sensitivity to ZN-c3 alone, LB-100 alone, or the combination of ZN-c3+LB-100 following treatment with siCTRL or siPPP2R1A (FIG. 20).

## CN1CCN(C(=O)C2C(C(=O)O)[C@H]3CC[C@@H]2O3)CC1 (some centres unmarked) [LB-100, reference compound]
[1]
  inhibition at 1 µM: ~12%
[2]
  percent inhibition of cell growth: approximately half of that value
[3]
  inhibition at 1 µM: 25%
[4]; HEC-59, siCTRL
  percent inhibition of cell growth: approximately half of that value
[4]; HEC-59, siPPP2R1A
  percent inhibition in siPPP2R1A treated cells compared to siCTRL treated cells: only slightly enhanced
